Results on 5 molecules are retold here after the NIST ThermoML archive (doi:10.1021/acs.jced.5b00662).

Molecules are shown by their SMILES. Several values for one entry are separate records, joined by “and”; a condition that tells them apart may be missing. Equal entries are not always repeated. Numbers after ± are expanded uncertainties.

The conditions of the first data set: 303.15 K; 101.33 kPa; Liquid; Vibrating tube method.
With `OCCOCCOCCO` [triethylene glycol], the mass density is 1115.8 ± 2 kg/m3 and 1116.8 ± 2 kg/m3.

Consider `CCOCCOCCOCC` [diethylene glycol diethyl ether], for which the mass density was 897.7 ± 4.1 kg/m3 and 899.8 ± 4.1 kg/m3.

For `COCCOCCO` [2-(2-methoxyethoxy)ethanol], the mass density is 1011 ± 2 kg/m3 and 1011.9 ± 2 kg/m3.

As for `COCCOCCOCCOC` [2,5,8,11-tetraoxadodecane], the mass density is 975.1 ± 2 kg/m3 and 976.7 ± 2 kg/m3.

As for `OCCO` [1,2-ethanediol], the mass density was 1106.3 ± 1 kg/m3 and 1107.6 ± 1 kg/m3.

The data set is the same for the next values; noted with them: 308.15 K; 101.33 kPa; Liquid; Concentric cylinders viscometry.
Consider `OCCOCCOCCO` [triethylene glycol], for which the viscosity was 23.6 ± 0.95 mPa·s.

With `CCOCCOCCOCC` [diethylene glycol diethyl ether], the viscosity is listed as 1.067 ± 0.044 mPa·s.

As for `COCCOCCO` [2-(2-methoxyethoxy)ethanol], the viscosity was 2.666 ± 0.11 mPa·s.

Consider `COCCOCCOCCOC` [2,5,8,11-tetraoxadodecane], for which the viscosity came out at 1.623 ± 0.066 mPa·s.

As to `OCCO` [1,2-ethanediol], the viscosity came out at 11.58 ± 0.47 mPa·s.

The same data set, now with this note: 308.15 K; 101.33 kPa; Liquid; Sing-around technique in a fixed-path interferometer.
For the molecule `OCCOCCOCCO` [triethylene glycol], the speed of sound is 1581.1 ± 1.6 m/s.

With `CCOCCOCCOCC` [diethylene glycol diethyl ether], the speed of sound amounted to 1203.9 ± 2.3 m/s.

With `COCCOCCO` [2-(2-methoxyethoxy)ethanol], the speed of sound stood at 1380.9 ± 1.6 m/s.

For `COCCOCCOCCOC` [2,5,8,11-tetraoxadodecane], the speed of sound was 1303.6 ± 1.5 m/s.

With `OCCO` [1,2-ethanediol], the speed of sound is reported as 1631.1 ± 1.3 m/s.

The data set is the same for the next values; noted with them: 308.15 K; 101.33 kPa; Liquid; Vibrating tube method.
For the molecule `OCCOCCOCCO` [triethylene glycol], the mass density was 1111.9 ± 2 kg/m3 and 1112.9 ± 2 kg/m3.

`CCOCCOCCOCC` [diethylene glycol diethyl ether]: the mass density was 892.9 ± 4.1 kg/m3 and 895 ± 4.1 kg/m3.

For the molecule `COCCOCCO` [2-(2-methoxyethoxy)ethanol], the mass density is 1006.6 ± 2 kg/m3 and 1007.4 ± 2 kg/m3.

Consider `COCCOCCOCCOC` [2,5,8,11-tetraoxadodecane], for which the mass density was 970.4 ± 2 kg/m3 and 971.9 ± 2 kg/m3.

In the case of `OCCO` [1,2-ethanediol], the mass density was 1104.1 ± 1 kg/m3.

Staying with this data set, now noted: 313.15 K; 101.33 kPa; Liquid; Concentric cylinders viscometry.
On to `OCCOCCOCCO` [triethylene glycol], for which the viscosity was 19.16 ± 0.78 mPa·s.

For the molecule `CCOCCOCCOCC` [diethylene glycol diethyl ether], the viscosity is on record as 0.9874 ± 0.041 mPa·s.

In the case of `COCCOCCO` [2-(2-methoxyethoxy)ethanol], the viscosity was 2.373 ± 0.096 mPa·s.

For `COCCOCCOCCOC` [2,5,8,11-tetraoxadodecane], the viscosity is recorded as 1.439 ± 0.059 mPa·s.

As to `OCCO` [1,2-ethanediol], the viscosity is listed as 9.627 ± 0.39 mPa·s.

Staying with this data set, now noted: 313.15 K; 101.33 kPa; Liquid; Sing-around technique in a fixed-path interferometer.
Consider `OCCOCCOCCO` [triethylene glycol], for which the speed of sound was 1566 ± 1.6 m/s.

In the case of `CCOCCOCCOCC` [diethylene glycol diethyl ether], the speed of sound amounted to 1184.1 ± 2.3 m/s.

For `COCCOCCO` [2-(2-methoxyethoxy)ethanol], the speed of sound was found to be 1363.9 ± 1.5 m/s.

`COCCOCCOCCOC` [2,5,8,11-tetraoxadodecane]: the speed of sound came to 1284.4 ± 1.5 m/s.

Turning to `OCCO` [1,2-ethanediol], the speed of sound is reported as 1619.3 ± 1.3 m/s.

Staying with this data set, now noted: 313.15 K; 101.33 kPa; Liquid; Vibrating tube method.
In the case of `OCCOCCOCCO` [triethylene glycol], the mass density is 1108 ± 2 kg/m3 and 1109 ± 2 kg/m3.

As to `CCOCCOCCOCC` [diethylene glycol diethyl ether], the mass density is 888.1 ± 4.1 kg/m3 and 890.1 ± 4.1 kg/m3.

With `COCCOCCO` [2-(2-methoxyethoxy)ethanol], the mass density was 1002.1 ± 2 kg/m3 and 1003 ± 2 kg/m3.

Take `COCCOCCOCCOC` [2,5,8,11-tetraoxadodecane]: the mass density is 965.6 ± 2 kg/m3 and 967.2 ± 2 kg/m3.

Regarding `OCCO` [1,2-ethanediol], the mass density is 1099.2 ± 1 kg/m3 and 1100.5 ± 1 kg/m3.

The same data set, now with this note: 318.15 K; 101.33 kPa; Liquid; Concentric cylinders viscometry.
As to `OCCOCCOCCO` [triethylene glycol], the viscosity amounted to 15.86 ± 0.64 mPa·s.

Regarding `CCOCCOCCOCC` [diethylene glycol diethyl ether], the viscosity was found to be 0.916 ± 0.038 mPa·s.

On to `COCCOCCO` [2-(2-methoxyethoxy)ethanol], for which the viscosity is 2.148 ± 0.087 mPa·s.

Turning to `COCCOCCOCCOC` [2,5,8,11-tetraoxadodecane], the viscosity is on record as 1.373 ± 0.056 mPa·s.

As to `OCCO` [1,2-ethanediol], the viscosity is 8.182 ± 0.33 mPa·s.

Staying with this data set, now noted: 318.15 K; 101.33 kPa; Liquid; Vibrating tube method.
Consider `OCCOCCOCCO` [triethylene glycol], for which the mass density was found to be 1105.1 ± 2 kg/m3.

In the case of `CCOCCOCCOCC` [diethylene glycol diethyl ether], the mass density stood at 885.3 ± 4.1 kg/m3.

For the molecule `COCCOCCO` [2-(2-methoxyethoxy)ethanol], the mass density was 998.8 ± 2 kg/m3.

As to `COCCOCCOCCOC` [2,5,8,11-tetraoxadodecane], the mass density stood at 962.4 ± 2 kg/m3.

As to `OCCO` [1,2-ethanediol], the mass density was determined as 1097 ± 1 kg/m3.

Staying with this data set, now noted: 323.15 K; 101.33 kPa; Liquid; Concentric cylinders viscometry.
As for `OCCOCCOCCO` [triethylene glycol], the viscosity turned out to be 13.25 ± 0.54 mPa·s.

Turning to `CCOCCOCCOCC` [diethylene glycol diethyl ether], the viscosity is listed as 0.852 ± 0.036 mPa·s.

On to `COCCOCCO` [2-(2-methoxyethoxy)ethanol], for which the viscosity is 1.946 ± 0.079 mPa·s.

As to `COCCOCCOCCOC` [2,5,8,11-tetraoxadodecane], the viscosity is on record as 1.27 ± 0.052 mPa·s.

On to `OCCO` [1,2-ethanediol], for which the viscosity came to 6.98 ± 0.28 mPa·s.

Staying with this data set, now noted: 323.15 K; 101.33 kPa; Liquid; Sing-around technique in a fixed-path interferometer.
With `OCCOCCOCCO` [triethylene glycol], the speed of sound was determined as 1536.3 ± 1.6 m/s.

For `CCOCCOCCOCC` [diethylene glycol diethyl ether], the speed of sound came to 1145.1 ± 2.3 m/s.

Take `COCCOCCO` [2-(2-methoxyethoxy)ethanol]: the speed of sound stood at 1329.7 ± 1.5 m/s.

For `COCCOCCOCCOC` [2,5,8,11-tetraoxadodecane], the speed of sound is on record as 1246.9 ± 1.5 m/s.

As to `OCCO` [1,2-ethanediol], the speed of sound is given as 1595.5 ± 1.3 m/s.

Still in this data set, the particulars now being: 323.15 K; 101.33 kPa; Liquid; Vibrating tube method.
As for `OCCOCCOCCO` [triethylene glycol], the mass density is 1100.2 ± 2 kg/m3 and 1101.2 ± 2 kg/m3.

In the case of `CCOCCOCCOCC` [diethylene glycol diethyl ether], the mass density was 878.4 ± 4.1 kg/m3 and 880.4 ± 4.1 kg/m3.

Take `COCCOCCO` [2-(2-methoxyethoxy)ethanol]: the mass density was 993.2 ± 2 kg/m3 and 994.3 ± 2 kg/m3.

As for `COCCOCCOCCOC` [2,5,8,11-tetraoxadodecane], the mass density was 956.1 ± 2 kg/m3 and 957.7 ± 2 kg/m3.

Consider `OCCO` [1,2-ethanediol], for which the mass density is 1092.1 ± 1 kg/m3 and 1093.4 ± 1 kg/m3.

Still in this data set, the particulars now being: 328.15 K; 101.33 kPa; Liquid; Concentric cylinders viscometry.
For the molecule `OCCOCCOCCO` [triethylene glycol], the viscosity is listed as 11.19 ± 0.45 mPa·s.

As to `CCOCCOCCOCC` [diethylene glycol diethyl ether], the viscosity was found to be 0.795 ± 0.033 mPa·s.

Regarding `COCCOCCO` [2-(2-methoxyethoxy)ethanol], the viscosity was determined as 1.772 ± 0.072 mPa·s.

For the molecule `COCCOCCOCCOC` [2,5,8,11-tetraoxadodecane], the viscosity was determined as 1.179 ± 0.048 mPa·s.

Take `OCCO` [1,2-ethanediol]: the viscosity is 6.007 ± 0.24 mPa·s.

The same data set, now with this note: 328.15 K; 101.33 kPa; Liquid; Vibrating tube method.
Take `OCCOCCOCCO` [triethylene glycol]: the mass density was 1097.3 ± 2 kg/m3.

Take `CCOCCOCCOCC` [diethylene glycol diethyl ether]: the mass density is listed as 875.6 ± 4.1 kg/m3.

With `COCCOCCO` [2-(2-methoxyethoxy)ethanol], the mass density is on record as 989.8 ± 2 kg/m3.

Turning to `COCCOCCOCCOC` [2,5,8,11-tetraoxadodecane], the mass density amounted to 952.9 ± 2 kg/m3.

Consider `OCCO` [1,2-ethanediol], for which the mass density is 1089.8 ± 1 kg/m3.

The same data set, now with this note: 333.15 K; 101.33 kPa; Liquid; Concentric cylinders viscometry.
Take `OCCOCCOCCO` [triethylene glycol]: the viscosity came to 9.528 ± 0.38 mPa·s.

For `CCOCCOCCOCC` [diethylene glycol diethyl ether], the viscosity was found to be 0.744 ± 0.031 mPa·s.

With `COCCOCCO` [2-(2-methoxyethoxy)ethanol], the viscosity is 1.606 ± 0.065 mPa·s.

On to `COCCOCCOCCOC` [2,5,8,11-tetraoxadodecane], for which the viscosity is 1.064 ± 0.043 mPa·s.

`OCCO` [1,2-ethanediol]: the viscosity was determined as 5.197 ± 0.21 mPa·s.

The same data set, now with this note: 333.15 K; 101.33 kPa; Liquid; Sing-around technique in a fixed-path interferometer.
Consider `OCCOCCOCCO` [triethylene glycol], for which the speed of sound came to 1506.8 ± 1.6 m/s.

As for `CCOCCOCCOCC` [diethylene glycol diethyl ether], the speed of sound was 1107.9 ± 2.3 m/s.

In the case of `COCCOCCO` [2-(2-methoxyethoxy)ethanol], the speed of sound was 1296.1 ± 1.5 m/s.

Regarding `COCCOCCOCCOC` [2,5,8,11-tetraoxadodecane], the speed of sound is on record as 1209.9 ± 1.5 m/s.

Consider `OCCO` [1,2-ethanediol], for which the speed of sound came to 1571.5 ± 1.3 m/s.

Staying with this data set, now noted: 333.15 K; 101.33 kPa; Liquid; Vibrating tube method.
Consider `OCCOCCOCCO` [triethylene glycol], for which the mass density is 1092.4 ± 2 kg/m3 and 1093.4 ± 2 kg/m3.

Regarding `CCOCCOCCOCC` [diethylene glycol diethyl ether], the mass density was 868.7 ± 4 kg/m3 and 870.7 ± 4.1 kg/m3.

Take `COCCOCCO` [2-(2-methoxyethoxy)ethanol]: the mass density is 984.1 ± 2 kg/m3 and 985.3 ± 2 kg/m3.

`COCCOCCOCCOC` [2,5,8,11-tetraoxadodecane]: the mass density is 946.5 ± 2 kg/m3 and 948.1 ± 2 kg/m3.

Turning to `OCCO` [1,2-ethanediol], the mass density is 1084.8 ± 1 kg/m3 and 1086.2 ± 1 kg/m3.
